Assay results published in PubChem BioAssay AID1259418 (Broad Institute, 2018).
Several values for one entry are separate records, joined by “and”; a condition that tells them apart may be missing. Equal values may be shown once. Inconclusive results are not listed. Activity calls are given as the source filed them.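 The calls were made as follows: active = fitted half-maximal concentration of signal decrease at or below twice the sample's top tested concentration; inconclusive = flat curve between -70 and -30 percent, or poor fit; inactive = flat within 30 percent, signal rise, or potency above limit.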

target: T. gondii ME49Luc in IFN-y HeLa, luciferase, 72 h; assay: inhibitors of Toxoplasma growth in IFN-γ-primed HeLa – cell-based, ME49Luc, luciferase, 72 h, dose response (AID 1259418)

SMILES | AC50
O=S(=O)(c1cccs1)N1CCCCN2[C@H](CO)[C@H](c3ccc(/C=C/c4ccccc4)cc3)[C@@H]2C1 | 18.8 µM
COc1cccc(S(=O)(=O)N2CCCCN3[C@@H](CO)[C@@H](c4ccc(C#CCC(C)C)cc4)[C@@H]3C2)c1 | 4.66 µM and 5.61 µM and 2.22 µM
Cc1ccc(-c2coc(-c3ccc(NS(=O)(=O)c4ccc(Br)cc4C)cc3)n2)c(C)c1 | 26.7 µM
CC(C)C#Cc1ccc([C@H]2[C@@H](CO)N3C(=O)CN(C(=O)NC4CCCC4)C[C@H]23)cc1 | > 39 µM (inactive)
Cc1nc(CCNC(=O)[C@H]2CCCN2S(=O)(=O)c2ccccc2)cs1 | 32.3 µM
COCCN(CCOC)C(=O)c1cc2c(c3ccccc3n2CC2CC2)n1-c1ncccn1 | 28 µM
O=C(NCc1cccnc1)C1CCN(Cc2cc3ccccc3n2Cc2ccc(F)cc2)CC1 | 38.3 µM
CCc1c(C)sc2c1CCN(Cc1nc(-c3cccc(OC)c3OC)oc1C)C2c1ccccc1 (configuration not stated) | 15.7 µM
COc1ccc(N(Cc2nc(-c3ccc(C)cc3)oc2C)S(=O)(=O)c2ccc(C)cc2)cc1 | 13.2 µM
O=S(=O)(c1cccs1)N1CCCCN2[C@H](C1)[C@@H](c1ccc(/C=C/c3ccccc3)cc1)[C@@H]2CO | 15.3 µM
CCCN1CCN(CCCNc2nc(-c3ccc(OC)cc3)nc3ccccc23)CC1 | 21.9 µM
Fc1ccc(Nc2nc(SCc3ccccc3Cl)nc3ccccc23)cc1F | 11.3 µM
COc1ccc(-c2nc(NCC3CCN(CCc4ccc(F)cc4)CC3)c3ccccc3n2)cc1 | 12.2 µM
N#C[C@H]1[C@H](c2ccc(-c3cccc(F)c3)cc2)[C@H](CO)N1C(=O)NC1CCCC1 | 18.9 µM
O=C(NCCc1csc(-c2ccccc2)n1)[C@H]1CCCN1C(=O)Cc1ccc(Cl)cc1 | > 39 µM (inactive)
CC(C)CNc1nc2c(cc1C(=O)NC(C)C)CCN(c1ccncn1)CC2 | 26.5 µM
Cc1ccc(C)c(S(=O)(=O)N2CCC3(CC2)c2ncc(-c4cccc(F)c4)n2CCN3C)c1 | 20.9 µM
Cc1ccc(CSC2=Nc3ccccc3C3=NC(CCC(=O)NCc4cccs4)C(=O)N23)c(C)c1 (configuration not stated) | 21.4 µM
Cc1ccc(-c2nc3c(s2)CN(C(=O)Nc2ccc(C)cc2C)CC3)cc1 | 35 µM

SMILES | AC50
CCCNC(=O)N1C[C@@H]2N[C@H](C1)C2c1ccc(-c2ccccc2C)cc1 (some centres not stated) | 18.1 µM
COc1ccc(N(Cc2nc(-c3ccccc3)oc2C)S(=O)(=O)c2ccccc2C)cc1 | 11.6 µM
O=S(=O)(c1cccs1)N1CCC2(CC1)NCCN=C2NCc1cccc(F)c1 | 26.1 µM
CS(=O)(=O)N1CC(=O)N2[C@H](C1)[C@@H](c1ccc(C#Cc3ccc(F)cc3)cc1)[C@@H]2CO | 22.8 µM
Cc1ccc(CNC2=NCCNC23CCN(S(=O)(=O)c2ccc(Cl)s2)CC3)cc1 | 5.08 µM
COCC(=O)N1[C@H](C#N)[C@H](c2ccc(C#Cc3ccccc3F)cc2)[C@@H]1CO | > 39 µM (inactive)
COc1ccc(C#Cc2ccc([C@@H]3[C@H](CO)N4C(=O)CN(C(=O)NC(C)C)C[C@@H]34)cc2)cc1 | 28.3 µM
O=C(Nc1ccc(-c2nc(-c3ccccc3)co2)cc1)c1cccc(F)c1 | 30.6 µM
N#C[C@@H]1[C@@H](c2ccc(C#Cc3cccnc3)cc2)[C@@H](CO)N1C(=O)NC1CCCCC1 | 13.6 µM
N#Cc1ccc(-c2ccc(C3[C@@H]4CN(C(=O)C5CCCCC5)C[C@H]3N4)cc2)cc1 (some centres not stated) | 17.8 µM and 28.4 µM and 27.6 µM
Fc1ccc(Nc2nc(SCc3ccc(Cl)cc3)nc3ccccc23)cc1F | 17.3 µM
O=C(Cc1cccnc1)N1CC(=O)N2[C@H](CO)[C@H](c3ccc(C#CC4CCCCC4)cc3)[C@@H]2C1 | 17.9 µM
Cc1ccc(N(Cc2nc(-c3cccc(Cl)c3)oc2C)S(=O)(=O)c2cccs2)cc1 | 5.3 µM and 7.96 µM
CCN1CCCC1CNc1nc(-c2ccc(OC)cc2)nc2ccccc12 (configuration not stated) | 15.1 µM
CCc1ccccc1S(=O)(=O)N1CCc2nc(-c3ccc(OC)cc3)sc2C1 | 7.8 µM and 14.9 µM
Cc1nc(-c2cccc(-c3noc(C(=O)NCCCN4CCC(C)CC4)n3)c2)cs1 | > 39 µM (inactive)
O=C1CCc2cc(S(=O)(=O)NCc3ccco3)cc3c2N1CCC3 | > 39 µM (inactive)
COc1ccc(-c2nc(CN(c3ccccc3OC)S(=O)(=O)c3ccc(C)cc3)c(C)o2)cc1 | 5.3 µM
